Data taken from patent US20080227640A1, “Plant Growth Regulation” (Bayer CropScience GmbH, priority 2004, published 2008).

Key:
[1] = tested on: wheat (Triticum aestivum, variety "TRISO"); test: Root growth assay, seed treatment, wheat; format: in vivo; conditions: Root Growth of 100 set as standard (untreated control), wet root weight 16 (±2) days post treatment
Excerpt: (§1) Plant roots are a highly proliferative tissue which allows to be seen as a reliable target organ in order to screen for plant growth regulators. The results obtained are regarded as an indication for the overall effects on a plant of plant growth regulators identified by such a system. By using this root assay one is enabled to determine the effect of a seed treatment to root growth and/or germination and/or changes in habitat of germinated plants in order to identify the possible use as a yield enhancer. Two seeds of wheat (Triticum aestivum, variety “TRISO”) or 1 seed of maize (Zea mays, variety “LORENZO”) per hole in a plastic tray which contains an architecture of 8×13 holes were placed on compost soil covered with sand. These seeds were treated with 100 μl/hole, which creates an application volume of approx. 1200 l/ha, of a compound solution at active ingredient rates equivalent to 100, 10 and 1 g a.i./ha of each compound using an robotic application system (Lizzy Spray Robotics). Six replicates in a row of each compound and concentration were done. The outer rim of the above defined plastic tray was untreated to avoid false negative effects and the middle row (No. 7) was used as untreated control. The treated seeds were allowed to dry for approx. 4 hours and subsequently covered with sand and watered. The trays were stored in climate chambers with 14 hours lighting at a temperature of 24° C. (±2) at daytime and 16° C. (±2) at night and relative humidity (rH) of 60% and daily watered. Assessments were done 16 (±2) days post treatment by counting the germinated plants and assessing the phytotoxicity symptoms and percentage. In addition, the roots were washed out and the shoots were cut directly above the seed and the wet roots were placed on dry paper towels for approximately 30 minutes and weighted afterwards. This procedure provides a similar grade of moisture to the roots so that a comparison of the weights is possible.
(§2) The effects observed concerning Root Growth given in column 2 (Root Growth of “100” is set as the standard) are directed to concentrations that are equivalent to 100, 10, 1 g a.i./ha, each.

[2] = tested on: maize (Zea mays, variety "LORENZO"); test: Root growth assay, seed treatment, maize; format: in vivo; conditions: Root Growth of 100 set as standard (untreated control), wet root weight 16 (±2) days post treatment
Excerpt: as §1, §2

SMILES | Root Growth ([1]; 1 g a.i./ha) | Root Growth ([1]; 10 g a.i./ha) | Root Growth ([1]; 100 g a.i./ha) | Root Growth ([2]; 1 g a.i./ha) | Root Growth ([2]; 10 g a.i./ha) | Root Growth ([2]; 100 g a.i./ha)
O=C1Nc2ccc(I)cc2C1=NNc1ncc(C(F)(F)F)cc1Cl [Compound 1.1] | 209 | 93 | 170 |  |  | 
O=C1Nc2ccc(Br)cc2C1=NNc1c(F)c(F)cc(F)c1F [Compound 1.2] | 198 | 228 | 274 | 69 | 116 | 567
O=C1Nc2ccc(Br)cc2C1=NNc1ccc(Cl)cc1 [Compound 1.4] |  |  |  | 105 | 125 | 99
O=C1Nc2ccc(Br)cc2C1=NNc1cc(Cl)cc(Cl)c1 [Compound 1.5] | 149 | 117 | 161 |  |  | 
Cc1ccc(NN=C2C(=O)Nc3ccc(Br)cc32)cc1 [Compound 1.6] |  |  |  | 149 | 140 | 137
O=C1Nc2ccc([N+](=O)[O-])cc2C1=NNc1ncc(C(F)(F)F)cc1Cl [Compound 1.8] |  |  |  | 174 | 100 | 48
O=C1Nc2ccc(Cl)cc2C1=NNc1cccc([N+](=O)[O-])c1 [Compound 1.10] |  |  |  | 126 | 107 | 102
Cc1ccc(NN=C2C(=O)Nc3ccc([N+](=O)[O-])cc32)cc1Cl [Compound 1.12] |  |  |  | 148 | 88 | 114
O=C1Nc2ccc(F)cc2C1=NNc1c(F)c(F)cc(F)c1F [Compound 1.18] |  |  |  | 150 | 85 | 170
NS(=O)(=O)c1ccc(NN=C2C(=O)Nc3ccc(F)cc32)cc1 [Compound 1.23, 4-[2-(5-Fluoro-2-oxo-1,2-dihydro-3H-indol-3-ylidene)-hydrazino]-benzenesulfonamide] | 135 | 61 | 65 |  |  | 
O=C1Nc2ccc(I)cc2/C1=C1/Nc2ccccc2/C1=N\O [Compound 2.1, 5-Iodoindirubin-3′-oxime] | 135 | 151 | 122 |  |  | 
CCON=C1C(=C2C(=O)Nc3ccc(Br)cc32)Nc2ccccc21 [Compound 2.4, 5-Bromoindirubin-3′-ethyloxime] | 184 | 115 | 62 |  |  | 
O=C1Nc2ccc(F)cc2C1=C1Nc2ccccc2C1=NO [Compound 2.7] | 182 | 390 | 172 | 174 | 159 | 118
